According to patent publication US10947227B2, “Tricyclic heterocyclic compounds as sting activators” (Incyte Corporation, priority 2018, dated 2021):

What was measured:
[1] = molecular target: human STING (Homo sapiens, UniProt Q86WV6); conditions: cited from earlier work
[2] = system: established tumors; conditions: preclinical mouse models; cited from earlier work
[3] = system: IRF3 activation in THP-1 Dual Cells; assay: IRF3 activation assay in THP-1 Dual Cells (QUANTI-Blue readout); assay type: cell-based; conditions: Homo sapiens, THP1-Dual, 24 h, Table 2, 24 hours incubation
In short: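 THP-1 Dual cells (100,000/well) were incubated with serially diluted compounds 24 h at 37 °C. […]; EC50 from percent control activity versus log concentration.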

Chain of human STING (Q86WV6 whole entry H232R): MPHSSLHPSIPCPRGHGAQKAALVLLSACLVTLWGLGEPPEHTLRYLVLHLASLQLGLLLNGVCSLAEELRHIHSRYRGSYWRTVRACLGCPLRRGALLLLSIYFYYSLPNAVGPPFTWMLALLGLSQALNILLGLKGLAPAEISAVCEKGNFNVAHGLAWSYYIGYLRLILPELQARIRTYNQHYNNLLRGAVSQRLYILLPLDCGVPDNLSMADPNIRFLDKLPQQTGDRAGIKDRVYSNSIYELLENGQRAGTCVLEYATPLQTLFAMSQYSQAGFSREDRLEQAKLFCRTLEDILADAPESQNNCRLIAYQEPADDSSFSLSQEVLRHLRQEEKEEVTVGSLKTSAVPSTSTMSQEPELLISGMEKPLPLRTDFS

SMILES	bind and activate human STING [1]	anti-tumor activity [2]	EC50 [3]
Cc1ccc2c(=O)c3cccc(CC(=O)O)c3oc2c1C [DMXAA, 5,6-dimethylxanthenone-4-acetic acid]	not human STING	excellent anti-tumor activity	–
CCn1nc(C)cc1C(=O)Nc1nc2cc(C(N)=O)cc(OC)c2n1C/C=C/Cn1c2nc(-c3cc(C)nn3CC)ncc2c2cc(C(N)=O)cc(OCCC3CCN(C(=O)OCC(=O)O)CC3)c21 [Example 56, (E)-2-(4-(2-(6-carbamoyl-9-(4-(5-carbamoyl-2-(1-ethyl-3-methyl-1H-pyrazole-5-carboxamido)-7-methoxy-1H-benzo[d]imidazol-1-yl)but-2-enyl)-2-(1-ethyl-3-methyl-1H-pyrazol-5-yl)-9H-pyrimido[4,5-b]indol-8-yloxy)ethyl)piperidine-1-carbonyloxy)acetic Acid]	–	–	50 to 200 nM
CCn1nc(C)cc1C(=O)Nc1nc2cc(C(N)=O)cc(OCCCO)c2n1C/C=C/Cn1c2nc(-c3cc(C)nn3CC)ncc2c2cc(C(N)=O)cc(OCCCOC(=O)NCCC(=O)O)c21 [Example 57, (E)-3-((3-(6-carbamoyl-9-(4-(5-carbamoyl-2-(1-ethyl-3-methyl-1H-pyrazole-5-carboxamido)-7-(3-hydroxypropoxy)-1H-benzo[d]imidazol-1-yl)but-2-enyl)-2-(1-ethyl-3-methyl-1H-pyrazol-5-yl)-9H-pyrimido[4,5-b]indol-8-yloxy)propoxy)carbonylamino)propanoic Acid]	–	–	50 to 200 nM
CCn1nc(C)cc1C(=O)Nc1nc2cc(C(N)=O)cc(OCCCOC(=O)NCCC(=O)O)c2n1C/C=C/Cn1c2nc(-c3cc(C)nn3CC)ncc2c2cc(C(N)=O)cc(OCCOCCOCCC(=O)O)c21 [Example 58, (E)-3-(((3-((5-carbamoyl-1-(4-(6-carbamoyl-8-(2-(2-(2-carboxyethoxy)ethoxy)ethoxy)-2-(1-ethyl-3-methyl-1H-pyrazol-5-yl)-9H-pyrimido[4,5-b]indol-9-yl)but-2-en-1-yl)-2-(1-ethyl-3-methyl-1H-pyrazole-5-carboxamido)-1H-benzo[d]imidazol-7-yl)oxy)propoxy)carbonyl)amino)propanoic Acid]	–	–	200 to 500 nM
CCn1nc(C)cc1C(=O)Nc1nc2cc(C(N)=O)cc(OCCCNC(=O)CCC(=O)O)c2n1C/C=C/Cn1c2nc(-c3cc(C)nn3CC)ncc2c2cc(C(N)=O)cc(OCCCOC)c21 [Example 59, (E)-4-((3-((5-carbamoyl-1-(4-(6-carbamoyl-2-(1-ethyl-3-methyl-1H-pyrazol-5-yl)-8-(3-methoxypropoxy)-9H-pyrimido[4,5-b]indol-9-yl)but-2-en-1-yl)-2-(1-ethyl-3-methyl-1H-pyrazole-5-carboxamido)-1H-benzo[d]imidazol-7-yl)oxy)propyl)amino)-4-oxobutanoic Acid]	–	–	50 to 200 nM
